According to PMC11945486, “TAS1R2/TAS1R3 Single-Nucleotide Polymorphisms Affect Sweet Taste Receptor Activation by Sweeteners: The SWEET Project” (Nutrients, 2025):
No end group written: not given here.

T1: human TAS1R2-R317G/TAS1R3-WT (Homo sapiens, UniProt Q7RTX0+Q8TE23, R317G)
T1 construct: expressed in transfected cells; host or cells: HEK293T-Gα16gust44
T1 sequence (Q8TE23 20-839 R317G): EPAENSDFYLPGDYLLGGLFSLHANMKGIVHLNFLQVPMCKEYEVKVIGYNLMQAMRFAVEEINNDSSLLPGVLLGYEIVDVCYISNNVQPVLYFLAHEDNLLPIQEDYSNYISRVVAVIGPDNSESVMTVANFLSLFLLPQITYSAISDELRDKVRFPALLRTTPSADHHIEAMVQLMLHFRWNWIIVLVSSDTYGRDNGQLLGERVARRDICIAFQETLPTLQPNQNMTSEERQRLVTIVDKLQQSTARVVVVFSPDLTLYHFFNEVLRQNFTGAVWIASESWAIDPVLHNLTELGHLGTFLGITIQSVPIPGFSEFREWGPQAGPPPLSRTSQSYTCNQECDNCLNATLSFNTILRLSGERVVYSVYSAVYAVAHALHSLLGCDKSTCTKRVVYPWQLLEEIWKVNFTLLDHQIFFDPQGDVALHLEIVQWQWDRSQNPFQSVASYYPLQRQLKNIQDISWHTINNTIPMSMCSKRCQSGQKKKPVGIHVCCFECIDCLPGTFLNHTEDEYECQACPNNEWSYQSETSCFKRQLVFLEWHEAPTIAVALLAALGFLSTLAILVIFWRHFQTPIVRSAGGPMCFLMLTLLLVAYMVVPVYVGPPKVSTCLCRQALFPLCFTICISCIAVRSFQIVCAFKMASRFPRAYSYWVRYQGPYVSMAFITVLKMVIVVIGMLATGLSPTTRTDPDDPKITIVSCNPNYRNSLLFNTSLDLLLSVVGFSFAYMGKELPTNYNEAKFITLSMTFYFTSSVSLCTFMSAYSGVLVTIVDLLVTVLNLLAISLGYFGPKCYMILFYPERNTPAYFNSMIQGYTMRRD
T1 sequence (Q7RTX0 21-852): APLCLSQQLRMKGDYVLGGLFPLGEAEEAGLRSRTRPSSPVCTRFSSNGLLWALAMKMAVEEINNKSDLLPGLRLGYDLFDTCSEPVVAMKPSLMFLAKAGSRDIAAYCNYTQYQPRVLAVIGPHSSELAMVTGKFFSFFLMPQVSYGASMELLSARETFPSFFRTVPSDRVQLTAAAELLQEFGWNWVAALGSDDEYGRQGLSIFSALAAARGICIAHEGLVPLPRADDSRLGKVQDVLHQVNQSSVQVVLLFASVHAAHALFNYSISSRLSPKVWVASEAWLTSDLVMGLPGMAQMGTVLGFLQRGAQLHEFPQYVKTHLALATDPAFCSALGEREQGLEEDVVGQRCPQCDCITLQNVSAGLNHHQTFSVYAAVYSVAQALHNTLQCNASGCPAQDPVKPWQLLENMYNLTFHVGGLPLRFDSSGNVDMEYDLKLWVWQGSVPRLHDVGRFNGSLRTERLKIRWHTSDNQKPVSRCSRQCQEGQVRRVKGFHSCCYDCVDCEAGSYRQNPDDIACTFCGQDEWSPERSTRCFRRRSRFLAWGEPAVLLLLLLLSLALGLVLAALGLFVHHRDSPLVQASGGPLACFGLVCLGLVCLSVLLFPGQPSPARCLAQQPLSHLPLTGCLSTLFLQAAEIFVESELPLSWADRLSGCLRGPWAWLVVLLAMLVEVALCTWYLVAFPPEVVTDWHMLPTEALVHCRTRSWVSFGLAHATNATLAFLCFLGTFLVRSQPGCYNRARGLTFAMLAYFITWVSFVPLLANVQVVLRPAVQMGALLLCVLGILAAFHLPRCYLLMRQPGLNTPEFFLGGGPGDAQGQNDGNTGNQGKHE


Target: T1, human TAS1R2-R317G/TAS1R3-WT
Assay: Calcium mobilisation assay, TAS1R2 variant R317G with TAS1R3-WT
Type: cell-based
Conditions: for Max ΔF/F0: maximal signal amplitude
Text: The coding sequences for TAS1R2 and TAS1R3 were commercially synthesised, and the human codon was optimised for expression in human cells. The coding sequences of human TAS1R2 and TAS1R3 were subcloned and inserted into the mammalian expression vectors pcDNA6/myc-HisA and pcDNA4/myc-HisA (Invitrogen; Thermo Fisher Scientific; Illkirch, France) between the EcoRI and NotI restriction sites, generating the plasmids pcDNA6-TAS1R2 and pcDNA4-TAS1R3, respectively. To increase protein expression in mammalian cells, an upstream start codon was used, which was a sequence called MAX, corresponding to the QBI SP163 element also described in pcDNA4-HisMax (Invitrogen; Thermo Fisher Scientific; Illkirch, France). To measure the expression level of the receptor by immunohistochemistry, we used the FLAG sequence ([…]) in the C-terminal position, which encodes the FLAG tag epitope. SNP variants of TAS1R2 and TAS1R3 were constructed based on […], respectively, using site-directed mutagenesis (Genewiz; Leipzig, Germany).
The HEK293T cells were kindly provided by Jay P. Slack (Givaudan Flavors Corporation; Cincinnati, OH, USA). HEK293T cells stably transfected with Gα16gust44 [43, 67] were seeded in poly-D-lysine-coated clear-bottom black 96-well plates (0.35 × 10^5 cells/well) in high-glucose DMEM supplemented with 2 mM GlutaMAX, 10% dialysed foetal bovine serum with penicillin/streptomycin and G418 (400 μg/mL) at 37 °C and 6.3% CO2 in a humidified atmosphere as previously reported. […] As a negative control, HEK293T cells were mock-transfected with the empty expression vector. After a further 24 h of incubation, the HEK293T cells were washed with C1 buffer (130 mM NaCl, 5 mM KCl, 10 mM HEPES pH 7.4 and 2 mM CaCl2). The 96-well plates containing the cells were then stimulated with sweet-tasting compounds. […] Different concentration ranges were tested depending on the sweet compound injected. The Ca^2+ changes were expressed as fractional changes in fluorescent light intensity: ΔF/F = (F − F0)/F0, where F was the fluorescent light intensity at each point, and F0 was the value of emitted fluorescent light prior to stimulus application. To calculate dose–response relationships, the changes in fluorescence upon stimulus application were averaged, mock-subtracted and baseline-corrected. The dose–response data obtained were adjusted using a 4-parameter logistic equation. The half-maximal effective concentrations (EC50 values) and maximal signal amplitudes were calculated using SigmaPlot software (version 15.0) (Systat Software; San Jose, CA, USA).
For in vitro calcium mobilisation assay performed on hTAS1R2-SNPs, hTAS1R3-SNPs and mTAS1R3-I60T, 6 to 7 concentrations were tested for each sweet compound, plus buffer alone. All concentration–receptor combinations were measured in duplicate, and each experiment was repeated at least 4 times (8 wells/concentration). Results were expressed for each concentration as ΔF/F mean ± SEM and represented as dose–response curves.

Row | Molecule | EC50 | R1 = Variant EC50/WT EC50 | Max ΔF/F0
1 | CC1=CC(=O)NS(=O)(=O)O1 [Acesulfame K, acesulfame K] | 465 ± 55 µM | 0.7 | 0.46 ± 0.02
2 | O=S(=O)(O)NC1CCCCC1 [Cyclamate, cyclamate] | 2160 ± 44 µM | – | –
3 | C[C@H](CC[C@@H](O[C@@H]1O[C@H](CO[C@@H]2O[C@H](CO)[C@@H](O)[C@H](O)[C@H]2O)[C@@H](O)[C@H](O)[C@H]1O[C@@H]1O[C@H](CO)[C@@H](O)[C@H](O)[C@H]1O)C(C)(C)O)[C@H]1CC[C@@]2(C)[C@@H]3CC=C4[C@@H](CC[C@H](O[C@@H]5O[C@H](CO[C@@H]6O[C@H](CO)[C@@H](O)[C@H](O)[C@H]6O)[C@@H](O)[C@H](O)[C@H]5O)C4(C)C)[C@]3(C)[C@H](O)C[C@]12C [Mogroside V, mogroside V] | 18.4 ± 1 µM | 1.1 | 1.34 ± 0.03
4 | COc1ccc(CCC(=O)c2c(O)cc(O[C@@H]3O[C@H](CO)[C@@H](O)[C@H](O)[C@H]3O[C@@H]3O[C@@H](C)[C@H](O)[C@@H](O)[C@H]3O)cc2O)cc1O [NHDC, neohesperidin dihydrochalcone] | 97.1 ± 5 µM | 1.3 | 0.85 ± 0.02
5 | COC(=O)[C@H](Cc1ccccc1)NC(=O)[C@H](CC(=O)O)NCCC(C)(C)C [Neotame] | 0.73 ± 0.13 µM | 0.9 | 0.56 ± 0.03
6 | C=C(C)[C@@H]1CC=C(/C=N/O)CC1 [Perillartine, perillartine] | 20.7 ± 0.6 µM | 1.2 | 1.53 ± 0.03
7 | C=C1C[C@@]23CC[C@H]4[C@@](C)(CCC[C@@]4(C)C(=O)O[C@@H]4O[C@H](CO)[C@@H](O)[C@H](O[C@@H]5O[C@H](CO)[C@@H](O)[C@H](O)[C@H]5O)[C@H]4O[C@@H]4O[C@H](CO)[C@@H](O)[C@H](O)[C@H]4O)[C@@H]2CC[C@]1(O[C@@H]1O[C@H](CO)[C@@H](O)[C@H](O[C@@H]2O[C@H](CO)[C@@H](O)[C@H](O)[C@H]2O)[C@H]1O[C@@H]1O[C@H](CO)[C@@H](O)[C@H](O)[C@H]1O)C3 [Rebaudioside M, rebaudioside M] | 20.4 ± 0.4 µM | 1.2 | 1.23 ± 0.01
8 | OC[C@H]1O[C@H](O[C@]2(CCl)O[C@H](CCl)[C@@H](O)[C@@H]2O)[C@H](O)[C@@H](O)[C@H]1Cl [Sucralose] | 62 ± 11 µM | 0.7 | 0.80 ± 0.05
9 | brazzein (QDKCKKVYENYPVSKCQLANQCNYDCKLDKHARSGECFYDEKRNLQCICDYCEY; ends and bridges not checked; cysteine pairing not given here; UniProt P56552 1-54, looked up) [sweet-tasting protein obtained by recombinant production using the yeast Pichia pastoris] | – | 1.3 | 1.18 ± 0.03
10 | thaumatin | – | 1.4 | 1.16 ± 0.02
11 | thaumatin (protein, Eight disulfides, sweet-tasting plant protein, E957) ATFEIVNRCSYTVWAAASKGDAALDAGGRQLNSGESWTINVEPGTKGGKIWARTDCYFDDSGSGICKTGDCGGLLRCKRFGRPPTTLAEFSLNQYGKDYIDISNIKGFNVPMDFSPTTRGCRGVRCAADIVGQCPAKLKAPGGGCNDACTVFQTSEYCCTTGKCGPTEYSRFFKRLCPDAFSYVLDKPTTVTCPGSSNYRVTFCPTA | 10.9 ± 0.3 µM | – | –
